Each structure is given as a SMILES string.

We go through 15 compounds from patent publication US20260132132A1, “3A,4,5,6-TETRAHYDRO-1 H-PYRAZOLO[3,4-C]PYRIDIN-7(7AH)-ONE DERIVATIVES AS FACTOR XIIA INHIBITORS” (KALVISTA PHARMACEUTICALS LIMITED, priority 2022, published 2026).

Holding throughout (format): biochemical
One assay concerns the target FXa (Homo sapiens, UniProt P00742). The assay can be described thus: Related protease inhibition: FXa, fluorogenic substrate. As to conditions: fluorogenic substrate at Km, 25° C., H1-H3 = % activity at 40 μM; for activity at 40 µM: read-out: IC50 (human FXa) nM. The protocol:
(§1) Human serine protease enzyme Plasma Kallikrein, KLK1, FXa, Plasmin, Thrombin and Trypsin were assayed for enzymatic activity using an appropriate fluorogenic substrate at Km concentration, FXIa at fixed substrate concentration of 100 μM and various concentrations of the test compound.

In assay [1] the target is T1, Human Factor XIIa (hFXIIa) (Homo sapiens, UniProt P00748).
T1 construct: purchased Enzyme Research Laboratories
T1 sequence (P00748 373-615 limits assumed): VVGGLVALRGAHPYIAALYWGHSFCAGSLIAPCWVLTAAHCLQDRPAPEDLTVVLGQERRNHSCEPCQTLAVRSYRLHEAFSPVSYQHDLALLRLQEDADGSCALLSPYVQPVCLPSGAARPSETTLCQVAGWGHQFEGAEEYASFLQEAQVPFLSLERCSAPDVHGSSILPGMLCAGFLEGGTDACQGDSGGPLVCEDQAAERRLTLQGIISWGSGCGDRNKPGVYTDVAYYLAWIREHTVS
T1 sequence (P00748 20-372 partner limits assumed): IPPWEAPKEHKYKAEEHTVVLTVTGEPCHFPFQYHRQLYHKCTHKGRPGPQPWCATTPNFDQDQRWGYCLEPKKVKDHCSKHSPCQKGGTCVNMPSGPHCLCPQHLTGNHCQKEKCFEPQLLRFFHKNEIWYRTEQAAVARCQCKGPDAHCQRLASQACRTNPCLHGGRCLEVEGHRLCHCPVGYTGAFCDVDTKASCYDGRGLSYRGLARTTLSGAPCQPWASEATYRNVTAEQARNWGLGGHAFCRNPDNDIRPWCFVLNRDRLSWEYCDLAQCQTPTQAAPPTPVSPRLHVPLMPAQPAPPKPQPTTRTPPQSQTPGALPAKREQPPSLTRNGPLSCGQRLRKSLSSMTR
The assay can be described thus: Determination of Human Factor XIIa (hFXIIa) inhibition, fluorogenic substrate IC50 assay. As to conditions: fluorogenic substrate H-DPro-Phe-Arg-AFC at Km, 25° C., read-out: Human FXIIa IC50. The protocol:
Determination of Human Factor XIIa (hFXIIa) inhibition
The Km for the cleavage of the substrate by hFXIIa was determined by standard transformation of the Michaelis-Menten equation, with subsequent inhibition assays performed at substrate Km concentration.

Another assay addresses Thrombin (Homo sapiens, UniProt P00734). As to the kind of experiment: Related protease inhibition: Thrombin, fluorogenic substrate. As to conditions: fluorogenic substrate at Km, 25° C., H1-H3 = % activity at 40 μM; for activity at 40 µM: read-out: IC50 (human thrombin) nM. The protocol:
as §1

Chain of FXa (P00742 235-488 limits assumed): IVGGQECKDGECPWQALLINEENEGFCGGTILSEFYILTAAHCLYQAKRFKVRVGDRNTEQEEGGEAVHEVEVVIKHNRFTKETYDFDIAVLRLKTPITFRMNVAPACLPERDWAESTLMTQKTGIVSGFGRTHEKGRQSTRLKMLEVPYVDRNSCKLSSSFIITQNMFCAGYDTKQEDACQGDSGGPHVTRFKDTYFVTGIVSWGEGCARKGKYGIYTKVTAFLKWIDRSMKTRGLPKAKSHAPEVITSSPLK
Chain of FXa (P00742 41-179 partner limits assumed): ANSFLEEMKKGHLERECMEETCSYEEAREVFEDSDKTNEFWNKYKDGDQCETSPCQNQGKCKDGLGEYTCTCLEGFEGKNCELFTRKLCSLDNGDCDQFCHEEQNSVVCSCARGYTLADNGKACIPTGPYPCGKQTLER

For `CCNC(=O)c1nn(-c2cccc(Cl)c2)c2c1CCN(c1cccc(N3CCC4(CC4)C3)c1)C2=O` [Example 1430, 6-(3-(5-azaspiro[2.4]heptan-5-yl)phenyl)-1-(3-chlorophenyl)-N-ethyl-7-oxo-4,5,6,7-tetrahydro-1H-pyrazolo[3,4-c]pyridine-3-carboxamide], the activity at 40 µM on FXa and on Thrombin was over 80% in each case. In addition, the half-maximal inhibitory concentration (IC50) in assay [1] was 3 to 10 µM.

As for `CCNC(=O)c1nn(-c2cccc(Cl)c2)c2c1CCN(c1cccc(N3CC4CC4C3)c1)C2=O` (stereo not drawn) [Example 1431, 6-(3-(3-azabicyclo[3.1.0]hexan-3-yl)phenyl)-1-(3-chlorophenyl)-N-ethyl-7-oxo-4,5,6,7-tetrahydro-1H-pyrazolo[3,4-c]pyridine-3-carboxamide], the activity at 40 µM on FXa was under 20%; on Thrombin, 20 to 80%. In addition, the concentration for half-maximal inhibition (IC50) in assay [1] was 10 to 40 µM.

On to `CCNC(=O)c1nn(-c2cccc(Cl)c2)c2c1CCN(c1cccc(N3CCN(C)C(=O)C3)c1)C2=O` [Example 1432, 1-(3-chlorophenyl)-N-ethyl-6-(3-(4-methyl-3-oxopiperazin-1-yl)phenyl)-7-oxo-4,5,6,7-tetrahydro-1H-pyrazolo[3,4-c]pyridine-3-carboxamide], for which the activity at 40 µM on FXa was 20 to 80%; on Thrombin it was under 20%. The IC50 in assay [1] lay in the range of 1 to 3 µM.

Turning to `CCNC(=O)c1nn(-c2cccc(Cl)c2)c2c1CCN(c1cc(N3C(=O)CC4CC43)ccc1F)C2=O` (stereo not drawn) [Example 1433, 1-(3-chlorophenyl)-N-ethyl-6-(2-fluoro-5-(3-oxo-2-azabicyclo[3.1.0]hexan-2-yl)phenyl)-7-oxo-4,5,6,7-tetrahydro-1H-pyrazolo[3,4-c]pyridine-3-carboxamide], the activity at 40 µM on FXa was 20 to 80%; at Thrombin, over 80%. The 50% inhibitory concentration (IC50) in assay [1] is 0.3 to 1 µM.

Consider `CCNC(=O)c1nn(-c2cccc(Cl)c2)c2c1CCN(c1ccc3c(c1)C(=O)N(C)C1CC3C1)C2=O` [Example 1434, 1-(3-chlorophenyl)-N-ethyl-6-(2-methyl-1-oxo-2,3,4,5-tetrahydro-1H-3,5-methanobenzo[c]azepin-8-yl)-7-oxo-4,5,6,7-tetrahydro-1H-pyrazolo[3,4-c]pyridine-3-carboxamide], for which the activity at 40 µM at FXa and on Thrombin was 20 to 80% throughout. Also, the IC50 in assay [1] lay in the range of 1 to 3 µM.

As for `CCNC(=O)c1nn(-c2cccc(Cl)c2)c2c1CCN(c1cc3c(cc1F)OCCN(C)C3=O)C2=O` [Example 1435, 1-(3-chlorophenyl)-N-ethyl-6-(8-fluoro-4-methyl-5-oxo-2,3,4,5-tetrahydrobenzo[f][1,4]oxazepin-7-yl)-7-oxo-4,5,6,7-tetrahydro-1H-pyrazolo[3,4-c]pyridine-3-carboxamide], the activity at 40 µM on FXa and on Thrombin was over 80% throughout. Moreover, the IC50 in assay [1] fell in the range of 0.1 to 0.3 µM.

As to `CCNC(=O)c1nn(-c2cccc(Cl)c2)c2c1CCN(c1cccc(N3C4CCC3CN(C)C4)c1)C2=O` [Example 1436, 1-(3-chlorophenyl)-N-ethyl-6-(3-(3-methyl-3,8-diazabicyclo[3.2.1]octan-8-yl)phenyl)-7-oxo-4,5,6,7-tetrahydro-1H-pyrazolo[3,4-c]pyridine-3-carboxamide], the activity at 40 µM at FXa and at Thrombin was over 80% in each case. Moreover, in assay [1], the IC50 lay within 3 to 10 µM.

Regarding `CN1CCc2ccc(N3CCc4c(C(=O)NC5COCC56CC6)nn(-c5cccc(Cl)c5)c4C3=O)cc2C1=O` (stereo not drawn) [Example 1438, 1-(3-chlorophenyl)-6-(2-methyl-1-oxo-1,2,3,4-tetrahydroisoquinolin-7-yl)-7-oxo-N-(5-oxaspiro[2.4]heptan-7-yl)-4,5,6,7-tetrahydro-1H-pyrazolo[3,4-c]pyridine-3-carboxamide], the activity at 40 µM on FXa and on Thrombin was over 80% in each case. Moreover, in assay [1], the 50% inhibitory concentration (IC50) was 0.1 to 0.3 µM.

Regarding `Cc1cc(CNC(=O)c2nn(-c3cc(Cl)cc(CN)c3)c3c2CCN(c2ccc4c(c2)C(=O)N(C)CC4)C3=O)nn1C` [Example 2017, 1-(3-(Aminomethyl)-5-chlorophenyl)-N-((1,5-dimethyl-1H-pyrazol-3-yl)methyl)-6-(2-methyl-1-oxo-1,2,3,4-tetrahydroisoquinolin-7-yl)-7-oxo-4,5,6,7-tetrahydro-1H-pyrazolo[3,4-c]pyridine-3-carboxamide], the concentration for half-maximal inhibition (IC50) lay in the range of 10 to 40 µM on FXa, 0.001 to 0.01 µM in assay [1] and 1 to 3 µM at Thrombin.

On to `CN1CCc2ccc(N3CCc4c(C(=O)NCC5CC5)nn(-c5cc(Cl)cc(CN)c5)c4C3=O)cc2C1=O` [Example 2018, 1-(3-(aminomethyl)-5-chlorophenyl)-N-(cyclopropylmethyl)-6-(2-methyl-1-oxo-1,2,3,4-tetrahydroisoquinolin-7-yl)-7-oxo-4,5,6,7-tetrahydro-1H-pyrazolo[3,4-c]pyridine-3-carboxamide], for which the IC50 was over 40 µM on FXa, 0.01 to 0.1 µM in assay [1] and 10 to 40 µM against Thrombin.

As for `CN1CCc2ccc(N3CCc4c(C(=O)NCC5CC5)nn(-c5cccc(CN)c5)c4C3=O)cc2C1=O` [Example 2019, 1-(3-(aminomethyl)phenyl)-N-(cyclopropylmethyl)-6-(2-methyl-1-oxo-1,2,3,4-tetrahydroisoquinolin-7-yl)-7-oxo-4,5,6,7-tetrahydro-1H-pyrazolo[3,4-c]pyridine-3-carboxamide], the results for the IC50 (against FXa; in assay [1]; on Thrombin) were 10 to 40 µM, 0.1 to 0.3 µM and 10 to 40 µM, respectively.

As to `CCNC(=O)c1nn(-c2cccc(OC)n2)c2c1CCN(c1ccc3c(c1)C(=O)N(C)CC3)C2=O` [Example 2037, N-ethyl-1-(6-methoxypyridin-2-yl)-6-(2-methyl-1-oxo-1,2,3,4-tetrahydroisoquinolin-7-yl)-7-oxo-4,5,6,7-tetrahydro-1H-pyrazolo[3,4-c]pyridine-3-carboxamide], the activity at 40 µM at FXa and on Thrombin was over 80% each time. In assay [1], the concentration for half-maximal inhibition (IC50) lay in the range of 10 to 40 µM.

For `COCc1nn(-c2cccc(C#N)c2C)c2c1CCN(c1ccc3c(c1)C(=O)N(C)CC3)C2=O` [Example 2038, 3-(3-(Methoxymethyl)-6-(2-methyl-1-oxo-1,2,3,4-tetrahydroisoquinolin-7-yl)-7-oxo-4,5,6,7-tetrahydro-1H-pyrazolo[3,4-c]pyridin-1-yl)-2-methylbenzonitrile], the activity at 40 µM on FXa and on Thrombin was over 80% each time. In assay [1], the IC50 was 10 to 40 µM.

Consider `COCc1nn(-c2cc(Cl)cc(CN)c2)c2c1CCN(c1ccc3c(c1)C(=O)N(C)CC3)C2=O` [Example 2041, 7-(1-(3-(aminomethyl)-5-chlorophenyl)-3-(methoxymethyl)-7-oxo-1,4,5,7-tetrahydro-6H-pyrazolo[3,4-c]pyridin-6-yl)-2-methyl-3,4-dihydroisoquinolin-1(2H)-one], for which the activity at 40 µM at FXa and on Thrombin was 20 to 80% throughout. Besides, the IC50 in assay [1] lay within 0.01 to 0.1 µM.

Take `CCNC(=O)c1nn(-c2cccc(C#N)c2C)c2c1CCN(c1ccc3c(c1)C(=O)N(C)CC3)C2=O` [Example 2042, 1-(3-cyano-2-methylphenyl)-N-ethyl-6-(2-methyl-1-oxo-1,2,3,4-tetrahydroisoquinolin-7-yl)-7-oxo-4,5,6,7-tetrahydro-1H-pyrazolo[3,4-c]pyridine-3-carboxamide]: the activity at 40 µM on FXa is over 80%; on Thrombin it was 20 to 80%. Further, in assay [1], the IC50 was 10 to 40 µM.
